Measurements reported in US12655185B2, “Peptide inhibitors of interleukin-23 and their use to treat inflammatory diseases” (Protagonist Therapeutics, Inc., priority 2016, dated 2026).
Bridge positions count the residues as written; N and C are the ends. Peptide text beside a SMILES is read from it.

Columns and labels:
[1] = biological target: T1, IL-23 binding to IL23R_huFC (human IL-23R) (Homo sapiens, UniProt P29460+Q9NPF7); assay: IL23-IL23R Competitive Binding ELISA; conditions: inhibition of IL-23/IL-23R binding; IL-23 0.9 nM; class symbols; read-out: IC50 IL23R_huFC
T1 sequence (Q9NPF7 20-189): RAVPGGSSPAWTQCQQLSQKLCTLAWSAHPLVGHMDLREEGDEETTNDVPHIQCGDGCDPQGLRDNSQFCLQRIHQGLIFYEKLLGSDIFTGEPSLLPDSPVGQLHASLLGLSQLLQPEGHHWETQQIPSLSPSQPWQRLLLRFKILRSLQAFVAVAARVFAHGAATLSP
T1 sequence (P29460 23-328): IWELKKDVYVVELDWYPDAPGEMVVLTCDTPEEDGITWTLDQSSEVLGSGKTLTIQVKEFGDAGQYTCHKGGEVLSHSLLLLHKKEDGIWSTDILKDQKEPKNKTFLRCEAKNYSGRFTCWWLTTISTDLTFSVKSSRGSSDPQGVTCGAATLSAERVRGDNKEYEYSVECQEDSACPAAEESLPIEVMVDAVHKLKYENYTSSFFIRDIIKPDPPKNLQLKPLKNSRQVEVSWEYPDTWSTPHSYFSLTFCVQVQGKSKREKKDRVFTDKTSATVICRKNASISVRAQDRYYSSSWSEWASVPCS
Description: Immulon® 4HBX plate was coated with 200 ng/well of IL23R_huFC and incubated overnight at 4° C. […] Serial dilutions of test peptides and IL-23 at a final concentration of 0.9 nM diluted in PBS were added to each well and incubated for 2 hours at room temperature. After the wells were washed, bound IL-23 was detected by incubation with 50 ng/well of goat anti-p40 polyclonal antibodies (R&D Systems #AF309) diluted in PBS for 1 hour at room temperature. The wells were again washed four times with PBST. […] The plate was finally washed as above. Signals were visualized with TMB One Component HRP Membrane Substrate, quenched with 2 M sulfuric acid and read spectrophotometrically at 450 nm.

[2] = biological target: T2, mouse IL-23 binding to mouse IL-23R (Mus musculus, UniProt P43432+Q9EQ14); assay: Mouse IL23/IL23R huFc ELISA; conditions: data not shown
T2 sequence (Q9EQ14 22-196): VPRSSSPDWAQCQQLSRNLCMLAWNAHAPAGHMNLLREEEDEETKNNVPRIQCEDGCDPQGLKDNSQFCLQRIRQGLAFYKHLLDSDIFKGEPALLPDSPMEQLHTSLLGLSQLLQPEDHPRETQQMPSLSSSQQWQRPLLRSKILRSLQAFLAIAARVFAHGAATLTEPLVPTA
T2 sequence (P43432 23-335): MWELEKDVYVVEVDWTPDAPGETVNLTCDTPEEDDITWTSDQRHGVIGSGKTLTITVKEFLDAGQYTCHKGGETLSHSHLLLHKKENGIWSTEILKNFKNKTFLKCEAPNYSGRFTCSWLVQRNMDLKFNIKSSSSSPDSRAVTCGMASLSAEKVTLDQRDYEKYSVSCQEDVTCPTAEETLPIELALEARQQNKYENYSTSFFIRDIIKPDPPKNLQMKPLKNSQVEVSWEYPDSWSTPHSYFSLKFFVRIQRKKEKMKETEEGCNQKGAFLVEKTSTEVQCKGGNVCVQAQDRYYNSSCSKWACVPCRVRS
Description: Certain peptides were tested to identify peptides that inhibit the binding of IL-23 to human IL-23R or mouse IL-23R, and inhibit IL-23/IL-23R functional activity, as described below. Each of these peptides comprised a disulfide bond between X5 and X34, except for Peptide 1, which comprises a disulfide bond between X4 and X33.

[3] = biological target: T3, IL-23 binding to human IL-12Rβ1_huFC (Homo sapiens, UniProt P29460+Q9NPF7); assay: Human IL23/IL12Rβ1 huFc ELISA
T3 sequence (Q9NPF7 20-189): T1 sequence (Q9NPF7 20-189)
T3 sequence (P29460 23-328): T1 sequence (P29460 23-328)
Description: (§1) The ability of Peptide 10 to block binding of IL-23 to IL-12Rβ1 or binding of IL-12 to IL-12Rβ1 was also determined. Human IL-12Rβ1 ELISA assays were performed as follows: an assay plate was coated with 100 ng/well of human IL-12Rβ1_huFC and incubated overnight at 4° C. The wells were washed, blocked, and washed again. Serial dilutions of test peptides and either IL-23 or IL-12 at a fixed concentration corresponding to EC50 values were added to each well, and incubated for 2 hours at room temperature. After the wells were washed, bound IL-23 were detected with goat anti-p40 polyclonal antibodies followed by an HRP conjugated donkey anti-goat IgG, and bound IL-12 were detected with a biotin conjugated anti-p40 monoclonal antibody followed by HRP conjugated streptavidin. Signals were visualized with TMB One Component HRP Membrane Substrate and quenched with 2 M sulfuric acid.

[4] = biological target: T4, IL-12 binding to human IL-12Rβ1_huFC (Homo sapiens, UniProt P29459+P29460); assay: Human IL12/IL12Rβ1 huFc ELISA
T4 sequence (P29459 23-219): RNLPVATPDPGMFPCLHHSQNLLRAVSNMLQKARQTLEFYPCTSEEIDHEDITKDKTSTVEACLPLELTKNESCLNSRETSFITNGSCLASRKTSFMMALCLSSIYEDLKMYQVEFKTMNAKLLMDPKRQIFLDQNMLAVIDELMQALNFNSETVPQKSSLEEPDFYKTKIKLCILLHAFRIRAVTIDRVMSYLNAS
T4 sequence (P29460 23-328): T1 sequence (P29460 23-328)
Description: as §1

[5] = system: human IL-23-dependent release of IL-17 from mouse splenocytes; assay: Mouse splenocyte assay; assay type: cell-based; conditions: IL-17A release; IL-23 20 ng/mL; 67 hours
Description: Frozen mouse splenocytes (Hooke Lab), suspended in RPMI Medium 1640 (Life technologies #22400-089) supplemented with 10% heat inactivated FBS (Life technologies #16140-071), 1×MEM Non-Essential Amino Acid Solution (Life technologies #11140-050), 1 mM sodium pyruvate (Life technologies #11360-070), 100 units of Penicillin-Streptomycin (Life technologies #15140-122, 0.05 mM 2-mercaptoethanol (Life technologies #21985-023) and recombinant human IL-2 (R&D Systems #202-IL-010/CF), were seeded at 4×10E5 cells/well in a 96 well tissue culture plate. Serial dilutions of test peptides and IL-23 at a final concentration of 20 ng/mL were preincubated in a separate assay plate for 60 minutes at 37° C. in a 5% CO2 humidified incubator. Preincubated samples were then added to the culture plate containing splenocytes and incubated for an additional 67 hours at 37° C. in a 5% CO2 humidified incubator. A sandwich ELISA kit for mouse IL17A (Biolegend #436204) was used to measure the amount of IL-17A in each sample supernatants, according to manufacturer's instructions.

[6] = biological target: IL-6 binding to IL-6R (Homo sapiens, UniProt P05231); assay: Binding of IL-6 to IL-6R; conditions: data not shown
[7] = biological target: IL-13 binding to IL-13Ra1 (Homo sapiens, UniProt P35225); assay: Binding of IL-13 to IL-13Ra1; conditions: data not shown

IC50 [1]: 1 to 10 µM
blocking of binding of mouse IL-23 to mouse IL-23R [2]: blocked
IC50 ([3]; competition binding, IL-23 at EC50): > 100 µM
blocking of binding of IL-23 to IL-12Rβ1 ([3]; result in words): did not block
IC50 ([4]; competition binding, IL-12 at EC50, read-out: Human IL12/IL12Rβ1huFc ELISA): > 100 µM
blocking of binding of IL-12 to IL12Rβ1 ([4]; result in words): did not block
IC50 [5]: 1.6 µM
blocking of binding of IL-6 to IL-6R [6]: did not block
blocking of binding of IL-13 to IL-13Ra1 [7]: did not block
Compound: CC[C@H](C)[C@@H]1NC(=O)[C@H](CCCCN)NC(=O)[C@H](C)NC(=O)[C@H](Cc2c[nH]c3ccccc23)NC(=O)[C@H](CCCNC(=N)N)NC(=O)[C@H](CCC(N)=O)NC(=O)[C@H](CCC(=O)O)NC(=O)[C@H](CCC(N)=O)NC(=O)[C@H](CC(N)=O)NC(=O)[C@H](CC(C)C)NC(=O)[C@H](CC(N)=O)NC(=O)[C@@H]2CCCN2C(=O)[C@H](CC(=O)O)NC(=O)[C@H](C(C)C)NC(=O)CNC(=O)[C@H](C)NC(=O)[C@H](CCC(=O)O)NC(=O)[C@H](CO)NC(=O)[C@H](CCSC)NC(=O)[C@H](CCCNC(=N)N)NC(=O)[C@H](CCCNC(=N)N)NC(=O)[C@H](CC(C)C)NC(=O)[C@@H](NC(=O)[C@H](CCC(N)=O)NC(=O)[C@H](CCSC)NC(=O)[C@H](CC(N)=O)NC(=O)[C@H](Cc2ccccc2)NC(C)=O)CSSC[C@@H](C(N)=O)NC(=O)[C@H](CC(=O)O)NC(=O)[C@H](CC(=O)O)NC(=O)[C@H](CCSC)NC(=O)[C@H]([C@@H](C)CC)NC(=O)[C@H](CO)NC(=O)[C@H](CCCCN)NC1=O [Peptide 10] (Ac-FNMQCLRRMSEAGVDPNLNQEQRWAKIKSIMDDC-NH2; disulfide 5-34)
